# Laboratory results reported in patent US5798392A, “Sulfonyl fluorides for the treatment of Alzheimer's disease” (The Board of Regents of the University of Texas System, priority 1996, dated 1998).
# “Also recorded” adds a separate entry of the source.
# Experiments:
# [1] = molecular target: T1, erythrocyte acetylcholinesterase (Homo sapiens, UniProt P22303); assay: Erythrocyte acetylcholinesterase substrate kinetics; type: biochemical
# [2] = molecular target: T1, erythrocyte acetylcholinesterase; assay: Erythrocyte acetylcholinesterase inhibition in blood after oral dosing of humans (Ellman assay); type: in vivo
# [3] = molecular target: plasma butyrylcholinesterase (Homo sapiens, UniProt P06276); assay: Plasma butyrylcholinesterase inhibition in blood after oral dosing (Experiment I); type: in vivo; details: oral doses
# plasma butyrylcholinesterase, sequence (P06276 29-602): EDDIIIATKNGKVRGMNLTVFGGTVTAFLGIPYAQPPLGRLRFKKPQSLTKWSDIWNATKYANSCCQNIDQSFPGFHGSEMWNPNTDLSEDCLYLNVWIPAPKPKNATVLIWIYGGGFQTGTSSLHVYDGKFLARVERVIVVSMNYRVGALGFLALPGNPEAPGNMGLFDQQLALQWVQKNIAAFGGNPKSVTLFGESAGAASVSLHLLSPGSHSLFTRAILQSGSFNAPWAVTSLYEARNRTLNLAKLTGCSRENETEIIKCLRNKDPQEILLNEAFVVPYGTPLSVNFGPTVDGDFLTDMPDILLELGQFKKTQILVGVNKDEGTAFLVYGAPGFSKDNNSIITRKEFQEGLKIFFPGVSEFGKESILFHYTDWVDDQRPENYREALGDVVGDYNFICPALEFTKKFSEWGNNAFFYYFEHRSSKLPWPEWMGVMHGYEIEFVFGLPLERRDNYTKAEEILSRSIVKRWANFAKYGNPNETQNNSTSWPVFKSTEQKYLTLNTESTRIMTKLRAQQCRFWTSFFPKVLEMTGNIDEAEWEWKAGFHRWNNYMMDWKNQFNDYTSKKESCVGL
# [4] = tested on: patients suffering from SDAT; assay: ADAS-COG cognitive performance, Experiment III double blind crossover; type: in vivo, human
# [5] = tested on: patients suffering from SDAT; assay: Mini Mental State Exam, Experiment III double blind crossover; type: in vivo, human; details: p<0.01 one-tailed, paired t-test and Wilcoxon
# [6] = tested on: patients suffering from SDAT; assay: Clinical Interview Based Impression of Change (CIBIC), Experiment III; type: in vivo, human; details: end of 16 week protocol; baseline 4.0; p<0.01 t-test one-tailed; spread SD
# [7] = tested on: patients suffering from SDAT; assay: Global Deterioration Scale, Experiment III; type: in vivo, human
# [8] = tested on: brain acetylcholinesterase; assay: Brain acetylcholinesterase inhibition in rodents and monkeys; set-up: species or system rodent and monkey; details: monkey, in vivo
# rats and monkeys = assay: Pharmacological activity after intramuscular injection in oil vehicle; type: in vivo; details: i.m., sterile oil vehicle
# acetylcholinesterase [9] = assay: Reaction with acetylcholinesterase in brain membranes in vitro; type: biochemical; details: solubilized in brain membranes, after removal from aqueous environment
# acetylcholinesterase [10] = details: cited from earlier work
# animal memory = details: minimum of 50% inhibition; without toxicity; cited from earlier work
# [11] = tested on: brain acetylcholinesterase; details: rodent and monkey brain; accumulated, small doses over a long period of time; up to; cited from earlier work
# [12] = Chemical stability and solubility
# [13] = Concentration in peripheral blood; details: in vivo
# [14] = Experiment III, safety in patients suffering from SDAT
# [15] = Experiment II, Phase I tolerability in 10 normal subjects
# [16] = Experiment I, side effects and clinical blood analyses in one normal volunteer; details: 0.016-0.22 mg/kg oral
# SDAT patients = details: cited from earlier work
# [17] = Prior tacrine treatment of two patients
# [18] = acetyl-β-methylthiocholine substrate, pH 7.4, 25° C
# T1 sequence (P22303 32-574): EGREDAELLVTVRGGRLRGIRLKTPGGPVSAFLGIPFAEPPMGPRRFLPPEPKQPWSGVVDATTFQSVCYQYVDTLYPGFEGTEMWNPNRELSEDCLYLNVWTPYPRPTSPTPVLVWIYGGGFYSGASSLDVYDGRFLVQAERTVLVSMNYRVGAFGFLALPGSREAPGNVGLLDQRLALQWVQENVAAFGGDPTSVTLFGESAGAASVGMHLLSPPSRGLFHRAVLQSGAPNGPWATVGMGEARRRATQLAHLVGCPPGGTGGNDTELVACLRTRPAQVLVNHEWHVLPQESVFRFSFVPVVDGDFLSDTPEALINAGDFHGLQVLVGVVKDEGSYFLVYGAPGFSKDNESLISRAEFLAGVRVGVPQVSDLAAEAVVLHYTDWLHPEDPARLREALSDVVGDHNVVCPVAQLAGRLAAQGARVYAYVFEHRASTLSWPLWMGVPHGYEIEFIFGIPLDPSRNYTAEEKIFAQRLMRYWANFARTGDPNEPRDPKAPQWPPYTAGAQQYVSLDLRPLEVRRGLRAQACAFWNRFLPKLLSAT
smiles,measurement,setting,value
CC(=O)SC(C)C[N+](C)(C)C (stereo not drawn) [acetyl-β-methylthiocholine],percent of Vmax produced by substrate concentration,"[1]; 1.0 mM substrate, approximately 10 times Km, without substrate inhibition",about 91%
same,Acetylcholinesterase Vmax,[1]; [18],9.2552 (SEM=0.6386) ×10-6 moles/gram of erythrocytes/min
same,erythrocyte acetylcholinesterase Vmax,[1]; [18],9.2552 (SEM=0.6386) ×10^-6 moles/gm/min
CS(=O)(=O)F [methanesulfonyl fluoride],inhibition at 0.14 mg/kg,"[2]; 0.14 mg/kg oral three times per week, Experiment III, spread SEM in %",85.3%
same,inhibition at 0.18 mg/kg,"[2]; 0.18 mg/kg oral three times per week, Experiment III, spread SEM in %",89.5%
same,estimated minimum therapeutic dose,"[2]; 18% inhibition of remaining active enzyme per dose, Experiment I",0.11 mg/kg
same,refined estimation of the (minimum) therapeutic dose,"[2]; 18% inhibition of remaining enzyme, three times per week, Experiments I and II",0.14 mg/kg
same,dose-response correlation r,"[2]; Experiment II, FIG. 6, least squares linear regression",+0.8956
same,dose/response relationship,"[2]; Experiment II, FIG. 6, oral",orderly and consistent dose/response relationship
same,dose required to produce 18% inhibition of acetylcholinesterase remaining active,"[2]; Experiment II, oral",0.143 mg/kg
same,selectivity for erythrocyte acetylcholinesterase,"[2]; FIG. 4, Experiment I oral doses, versus plasma butyrylcholinesterase",strongly selective for erythrocyte acetylcholinesterase
same,recovery kinetics of erythrocyte acetylcholinesterase,"[2]; FIG. 5, 80 days after treatment ceased",follows pseudo-first order kinetics; also recorded: strictly linear plot of LOG10 [%INH] against time
same,half-life for recovery of erythrocyte acetylcholinesterase,"[2]; FIG. 5, Experiment I, 80 days after last dose",43 days
same,activity by oral administration (erythrocyte acetylcholinesterase inhibition),"[2]; oral, Experiment I, FIG. 1",active by oral administration
same,dose-response of erythrocyte acetylcholinesterase inhibition,"[2]; oral, Experiment I, FIG. 1, one observation at each dose",orderly dose-response curve
same,inhibition of erythrocyte acetylcholinesterase,[2]; patients treated up to 8 weeks,85-90%
same,"correlation coefficient r, LOG10 [% inhibition] against time","[2]; recovery of erythrocyte acetylcholinesterase, FIG. 5, least squares linear regression",-0.9254
same,inhibition of plasma butyrylcholinesterase,[3],virtually no inhibition of plasma butyrylcholinesterase
same,percent improvement on the ADAS-COG,[4]; 6 point reduction from 30 errors,20%
same,mean improvement on the ADAS-COG,"[4]; Experiment III, mean of 30 errors at beginning",6 points
same,cognitive performance (reduction in errors on the ADAS-COG),"[4]; FIG. 7, during methanesulfonyl fluoride treatment",substantial improvement of cognitive performance
same,duration of improvement after treatment,[4]; after/through 8 weeks of placebo treatment,still clearly present after 8 weeks of placebo treatment; also recorded: maintained through 8 weeks of placebo
same,efficacy compared with tacrine in enhancing cognitive functions in SDAT,[4]; in vivo,significantly greater efficacy than tacrine
same,improvement on ADAS-COG maintained throughout 8 additional weeks of placebo,"[4]; methanesulfonyl fluoride first, then placebo",about 6 points
same,ADAS-COG change in 8 weeks compared to placebo,"[4]; p<0.01 one-tailed, paired t-test and Wilcoxon",significant improvement compared to the placebo
same,correlation of ADAS-COG improvement with baseline ADAS-COG errors,"[4]; p<0.05, N=15",+0.6
same,Mini-Mental State score change in 8 weeks compared to placebo,[5],significant improvement compared to the placebo
same,mean CIBIC,[6],2.98 (SD=1.13)
same,mean improvement in Global Deterioration Score,"[7]; 16 weeks versus baseline, p<0.01 t-test one-tailed, spread SEM",1.3 (SEM=0.33)
same,mean Global Deterioration Score at the end of the protocol,"[7]; end of 16 week protocol, baseline 4.4 (SEM=0.21)",3.1
same,inhibition in brain versus peripheral tissues,[8],much more inhibition in brain than peripheral tissues
same,pharmacological activity if injected intramuscularly,rats and monkeys,pharmacologically active
same,continued reaction against acetylcholinesterase,acetylcholinesterase [9],continues to react against acetylcholinesterase even after it is removed from the aqueous environment of the membranes in vitro
same,mechanism and duration of acetylcholinesterase inhibition,acetylcholinesterase [10],long-acting irreversible inhibitor of acetylcholinesterase
same,selectivity for acetylcholinesterase in comparison to butyrylcholinesterase,acetylcholinesterase [10],high selectivity
same,enhancement of animal memory,animal memory,strong methanesulfonyl fluoride-induced enhancement of animal memory without toxicity
same,inhibition of brain acetylcholinesterase,[11],80-90%
same,solubility in lipids,[12]; lipids,highly soluble in lipids
same,chemical stability in water solutions,[12]; water solutions,would degrade in water solutions
same,concentration in the peripheral blood,[13],drops within hours
same,adverse events,"[14]; 0.14 mg/kg, first 7 patients",no adverse events
same,"clinical blood profiles, especially transaminases",[14]; Experiment III,no changes in clinical blood profiles
same,"nausea, vomiting, diarrhea, or other cholinergic side effects",[14]; Experiment III,no patients suffered
same,signs of toxicity at the doses used,[14]; Experiment III,no signs of methanesulfonyl fluoride toxicity
same,adverse events related to drug treatment,"[14]; Experiment III, 0.14-0.18 mg/kg",no adverse events
same,patients leaving the protocol because of a drug-related adverse event,"[14]; Experiment III, 21 enrolled, 15 completed",No patients
same,peripheral cholinergic or other toxic effects,[14]; doses sufficient for treatment of dementia,not accompanied by peripheral cholinergic or other toxic effects
same,hematocrit changes,"[14]; patients, up to 8 weeks, 85-90% inhibition of erythrocyte acetylcholinesterase",no changes in hematocrit
same,adverse events in patients with known tacrine sensitivity,[14]; two patients with prior tacrine adverse effects,Neither of these patients with known sensitivities experienced adverse events
same,tolerability,"[15]; 0.03-0.18 mg/kg oral, Experiment II",All doses used were tolerated well
same,safety at range of doses expected to produce a therapeutic effect,[15]; Experiments I and II,safe at the range of doses expected to produce a therapeutic effect
same,oral absorption,"[15]; oral, Experiment II",consistently absorbed after oral administration
same,changes in the clinical blood analyses,[16],no changes of any type in the clinical blood analyses
same,"cholinergic effects (e.g., diarrhea, vomiting, nausea)",[16],no cholinergic effects
"CNC(=O)Oc1ccc2c(c1)[C@]1(C)CCN(C)[C@@H]1N2C [physostigmine, reference compound]",selectivity for acetylcholinesterase in comparison to butyrylcholinesterase,acetylcholinesterase [10],do not show this high degree of selectivity
"COP(=O)(OC)C(O)C(Cl)(Cl)Cl (centres unmarked) [metrifonate, reference compound]",selectivity for acetylcholinesterase in comparison to butyrylcholinesterase,acetylcholinesterase [10],do not show this high degree of selectivity
Nc1c2c(nc3ccccc13)CCCC2 [tacrine],mean improvement on the ADAS-COG,"SDAT patients; high dose tacrine, patients who could tolerate",2 points
same,patients who could tolerate,SDAT patients; high dose tacrine,40%
same,patients who failed to complete the protocol because of drug-related adverse events,SDAT patients; high dose tacrine,about 60%
same,adverse events related to treatment,SDAT patients; in vivo,"cholinergic side effects (nausea, vomiting, diarrhea, etc.) and liver toxicity"
same,prior adverse effects,[17]; one patient each,liver toxicity; also recorded: vomiting
same,highest tolerated dose (limited by vomiting),"[17]; one patient, an ineffective dose",60 mg/day
